Results as given in patent EP2818472A1, “Imidazo[4,5-c]pyridine and pyrrolo[3,2-c]pyridine compounds as G-protein-coupled receptor kinase 5 (GRK5) modulators” (Max-Planck-Gesellschaft zur Förderung der Wissenschaften …, priority 2013, dated 2014).

Tested on: beta-TC6 cells
Assay: Insulin HTRF assay (relative activity Ar) in beta-TC6 cells
Assay type: cell-based, mouse
Conditions: Mus musculus, Beta-TC6, 4 h, insulin HTRF, supernatant of beta-TC6 cells, incubation with test compound at 37°C for 2, 3, 4h; read-out: Ar (relative activity)
Method in brief: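 beta-TC6 cells (15k/well, seeded 24 or 48 h) washed, then exposed to compound in induction buffer (0.5% DMSO final) for 2, 3 or 4 h at 37°C.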

| SMILES | Emax [%] |
| --- | --- |
| Cc1cccc(CNc2nc3cnc(-c4ccc(Cl)cc4)cc3n2C)c1 [Compound 581, 6-(4-chlorophenyl)-1-methyl-N-(m-tolylmethyl)imidazo[4,5-c]pyridin-2-amine] | 30 to 50 |
| CNc1nc2cnc(Nc3ccc(N4CCN(C)CC4)cc3)cc2n1CC1CC1 [Compound 572, 1-(cyclopropylmethyl)-N2-methyl-N6-[4-(4-methylpiperazin-1-yl)phenyl]imidazo[4,5-c]pyridine-2,6-diamine] | 50 to 100 |
| COc1ccc(Nc2cc3c(cn2)nc(NCc2ccc(OC)c(OC)c2)n3C)cc1 [Compound 606, N2-[(3,4-dimethoxyphenyl)methyl]-N6-(4-methoxyphenyl)-1-methyl-imidazo[4,5-c]pyridine-2,6-diamine] | 50 to 100 |
| COc1cccc(Nc2nccc3[nH]c(-c4ccco4)nc23)c1 [Compound 464, 2-(2-furyl)-N-(3-methoxyphenyl)-1H-imidazo[4,5-c]pyridin-4-amine] | 30 to 50 |
| Cn1cc(-c2cc3cnc(Nc4ccccn4)cc3n2C)cn1 [Compound 139, 1-methyl-2-(1-methylpyrazol-4-yl)-N-(2-pyridyl)pyrrolo[3,2-c]pyridin-6-amine] | 50 to 100 |
| COc1cccc(Nc2nccc3[nH]c(-c4ccncc4)nc23)c1 [Compound 422, N-(3-methoxyphenyl)-2-(4-pyridyl)-1H-imidazo[4,5-c]pyridin-4-amine] | 30 to 50 |
| COc1ccc(Nc2cc3c(cn2)nc(-c2ccccc2)n3C)cc1 [Compound 705, N-(4-methoxyphenyl)-1-methyl-2-phenyl-imidazo[4,5-c]pyridin-6-amine] | 30 to 50 |
| CNc1nc2cnc(Nc3cc(C(F)(F)F)ccc3F)cc2n1Cc1ccco1 [Compound 777, N6-[2-fluoro-5-(trifluoromethyl)phenyl]-1-(2-furylmethyl)-N2-methyl-imidazo[4,5-c]pyridine-2,6-diamine] | 0 to 30 |
| CNc1nc2cnc(Nc3ccc(OC)cc3)cc2n1-c1cc(OC)c(OC)c(OC)c1 [Compound 490, N6-(4-methoxyphenyl)-N2-methyl-1-(3,4,5-trimethoxyphenyl)imidazo[4,5-c]pyridine-2,6-diamine] | 50 to 100 |
| COc1cccc(Nc2cc3[nH]c(-c4cncn4C)cc3cn2)c1 [Compound 101, N-(3-methoxyphenyl)-2-(3-methylimidazol-4-yl)-1H-pyrrolo[3,2-c]pyridin-6-amine] | 50 to 100 |
| Cn1c(NCc2ccccc2F)nc2cnc(-c3ccc(N4CCOCC4)cc3)cc21 [Compound 653, N-[(2-fluorophenyl)methyl]-1-methyl-6-(4-morpholinophenyl)imidazo[4,5-c]pyridin-2-amine] | 50 to 100 |
| Cn1c(NCc2ccccc2F)nc2cnc(-c3cccc(CO)c3)cc21 [Compound 868, [3-[2-[(2-fluorophenyl)methylamino]-1-methyl-imidazo[4,5-c]pyridin-6-yl]phenyl]methanol] | 0 to 30 |
| CNc1nc2cnc(Nc3cccnc3)cc2n1-c1ccccc1 [Compound 507, N2-methyl-1-phenyl-N6-(3-pyridyl)imidazo[4,5-c]pyridine-2,6-diamine] | 30 to 50 |
| CC(=O)Nc1cccc(Nc2cc3c(cn2)cc(-c2cccnc2)n3C)c1 [Compound 96, N-[3-[[1-methyl-2-(3-pyridyl)pyrrolo[3,2-c]pyridin-6-yl]amino]phenyl]acetamide] | 50 to 100 |
| Cn1c(-c2ccsc2)cc2c(Nc3ccncc3)nccc21 [Compound 278, 1-methyl-N-(4-pyridyl)-2-(3-thienyl)pyrrolo[3,2-c]pyridin-4-amine] | 50 to 100 |
| COc1ccc(Nc2cc3[nH]c(-c4ccccc4)cc3cn2)cc1OC [Compound 175, N-(3,4-dimethoxyphenyl)-2-phenyl-1 H-pyrrolo[3,2-c]pyridin-6-amine] | 50 to 100 |
| Cn1c(NCC2CCCO2)nc2cnc(-c3ccc4ccccc4c3)cc21 (stereo not drawn) [Compound 850, 1-methyl-6-(2-naphthyl)-N-(tetrahydrofuran-2-ylmethyl)imidazo[4,5-c]pyridin-2-amine] | 30 to 50 |
| CNc1nc2cnc(Nc3cccc(OC)c3)cc2n1Cc1ccc(OC)c(OC)c1 [Compound 662, 1-[(3,4-dimethoxyphenyl)methyl]-N6-(3-methoxyphenyl)-N2-methyl-imidazo[4,5-c]pyridine-2,6-diamine] | 50 to 100 |
| CNc1nc2cnc(-c3ccc(F)c(Cl)c3)cc2n1-c1ccccc1 [Compound 784, 6-(3-chloro-4-fluoro-phenyl)-N-methyl-1-phenyl-imidazo[4,5-c]pyridin-2-amine] | 0 to 30 |
| CC(=O)Nc1cccc(Nc2cc3[nH]c(-c4cccnc4)cc3cn2)c1 [Compound 80, N-[3-[[2-(3-pyridyl)-1H-pyrrolo[3,2-c]pyridin-6-yl]amino]phenyl]acetamide] | > 100 |
| COc1ccc(Nc2cc3c(cn2)cc(-c2ccc(C(=O)N(C)C)cc2)n3C)cc1O [Compound 54, 4-[6-(3-hydroxy-4-methoxy-anilino)-1-methyl-pyrrolo[3,2-c]pyridin-2-yl]-N,N-dimethyl-benzamide] | 50 to 100 |

| SMILES | Emax [%] |
| --- | --- |
| COc1cccc(-c2nc3c(Nc4ccc(Cl)cc4)nccc3[nH]2)c1F [Compound 471, N-(4-chlorophenyl)-2-(2-fluoro-3-methoxy-phenyl)-1H-imidazo[4,5-c]pyridin-4-amine] | 0 to 30 |
| COc1cccc(-c2cc3c(Nc4ccc(OC)nc4)nccc3[nH]2)c1 [Compound 307, 2-(3-methoxyphenyl)-N-(6-methoxy-3-pyridyl)-1H-pyrrolo[3,2-c]pyridin-4-amine] | 50 to 100 |
| CNc1nc2cnc(-c3cccc(N(C)C)c3)cc2n1-c1cccc(F)c1 [Compound 683, 6-[3-(dimethylamino)phenyl]-1-(3-fluorophenyl)-N-methyl-imidazo[4,5-c]pyridin-2-amine] | 30 to 50 |
| COc1ccc(-c2nc3c(Nc4cccc(OC)c4)nccc3[nH]2)cc1 [Compound 390, N-(3-methoxyphenyl)-2-(4-methoxyphenyl)-1H-imidazo[4,5-c]pyridin-4-amine] | 30 to 50 |
| CC(C)c1ccc(Nc2nccc3c2ncn3Cc2ccccc2)cc1 [Compound 457, 1-benzyl-N-(4-isopropylphenyl)imidazo[4,5-c]pyridin-4-amine] | 30 to 50 |
| COc1cccc(-c2cc3c(Nc4ccc(C(=O)N(C)C)cc4)nccc3[nH]2)c1 [Compound 313, 4-[[2-(3-methoxyphenyl)-1H-pyrrolo[3,2-c]pyridin-4-yl]amino]-N,N-dimethyl-benzamide] | > 100 |
| CC(=O)N(C)c1cccc(-c2cc3cnc(Nc4ccc(C(=O)N(C)C)cc4)cc3n2C)c1 [Compound 172, 4-[[2-[3-[acetyl(methyl)amino]phenyl]-1-methyl-pyrrolo[3,2-c]pyridin-6-yl]amino]-N,N-dimethyl-benzamide] | 50 to 100 |
| COc1cc(Nc2cc3c(cn2)nc(-c2ccco2)n3C)cc(OC)c1OC [Compound 707, 2-(2-furyl)-1-methyl-N-(3,4,5-trimethoxyphenyl)imidazo[4,5-c]pyridin-6-amine] | > 100 |
| CC(=O)c1cccc(Nc2cc3[nH]c(-c4ccc(C(=O)N(C)C)cc4)cc3cn2)c1 [Compound 42, 4-[6-(3-acetylanilino)-1H-pyrrolo[3,2-c]pyridin-2-yl]-N,N-dimethyl-benzamide] | 50 to 100 |
| CNc1nc2cnc(Nc3ccc(SC)cc3)cc2n1Cc1ccc(OC)c(OC)c1 [Compound 675, 1-[(3,4-dimethoxyphenyl)methyl]-N2-methyl-N6-(4-methylsulfanylphenyl)imidazo[4,5-c]pyridine-2,6-diamine] | 50 to 100 |
| Cn1cc(-c2cc3cnc(Nc4ccc5c(c4)OCCO5)cc3n2C)cn1 [Compound 128, N-(2,3-dihydro-1,4-benzodioxin-6-yl)-1-methyl-2-(1-methylpyrazol-4-yl)pyrrolo[3,2-c]pyridin-6-amine] | 50 to 100 |
| CC(=O)Nc1ccc(Nc2nccc3[nH]c(-c4cccc(F)c4)cc23)cc1 [Compound 198, N-[4-[[2-(3-fluorophenyl)-1H-pyrrolo[3,2-c]pyridin-4-yl]amino]phenyl]acetamide] | 50 to 100 |
| COc1ccc(Nc2nccc3[nH]c(-c4cccc(OC)c4F)nc23)cn1 [Compound 470, 2-(2-fluoro-3-methoxy-phenyl)-N-(6-methoxy-3-pyridyl)-1H-imidazo[4,5-c]pyridin-4-amine] | 30 to 50 |
| CC(=O)c1cccc(Nc2cc3[nH]c(-c4cnn(C)c4)cc3cn2)c1 [Compound 124, 1-[3-[[2-(1-methylpyrazol-4-yl)-1H-pyrrolo[3,2-c]pyridin-6-yl]amino]phenyl]ethanone] | > 100 |
| Cn1c(NCc2ccccc2)nc2cnc(-c3ccc(N4CCOCC4)cc3)cc21 [Compound 614, N-benzyl-1-methyl-6-(4-morpholinophenyl)imidazo[4,5-c]pyridin-2-amine] | 50 to 100 |
| CNc1nc2cnc(Nc3ccc(C(N)=O)cc3)cc2n1-c1cccc(C(F)(F)F)c1 [Compound 542, 4-[[2-(methylamino)-1-[3-(trifluoromethyl)phenyl]imidazo[4,5-c]pyridin-6-yl]amino]benzamide] | 30 to 50 |
| Cc1cccc(CNc2nc3cnc(Nc4ccc(F)cc4)cc3n2C)c1 [Compound 582, N6-(4-fluorophenyl)-1-methyl-N2-(m-tolylmethyl)imidazo[4,5-c]pyridine-2,6-diamine] | 30 to 50 |
| CS(=O)(=O)c1ccc(Nc2nccc3[nH]c(-c4ccccc4)cc23)cc1 [Compound 324, N-(4-methylsulfonylphenyl)-2-phenyl-1H-pyrrolo[3,2-c]pyridin-4-amine] | 50 to 100 |
| Oc1ccc(Nc2nccc3[nH]c(-c4ccccc4)cc23)cc1 [Compound 317, 4-[(2-phenyl-1H-pyrrolo[3,2-c]pyridin-4-yl)amino]phenol] | 50 to 100 |
| COc1ccc(-c2nc3c(NCc4ccccc4)nccc3[nH]2)cc1OC [Compound 347, N-benzyl-2-(3,4-dimethoxyphenyl)-1H-imidazo[4,5-c]pyridin-4-amine] | 50 to 100 |
| CNc1nc2cnc(Nc3ccc(OC(C)C)cc3)cc2n1CCOC [Compound 500, N6-(4-isopropoxyphenyl)-1-(2-methoxyethyl)-N2-methyl-imidazo[4,5-c]pyridine-2,6-diamine] | 50 to 100 |
